Data published in patent US8217178B2, “[4-(5-aminomethyl-2-fluoro-phenyl)-piperidin-1-yl]-[7-flouro-1-(2-methoxy-ethyl)-4-trifluorom as an inhibitor of mast cell tryptase” (Sanofi, priority 2008, dated 2012).

Tests used:
[1] = system: antigen-induced airway hyperreactivity; assay: Antigen-induced airway hyperactivity assay in ovalbumin-sensitized guinea pigs; type: in vivo, guinea pig; conditions: for Increase in Airway Resistance (Area Under Curve) / Dynamic Lung Compliance (Area Under Curve): 24 hours prior to antigen challenge, histamine challenge i.v.; for Increase in Airway Resistance (Area Under Curve): Saline 3490, OVA (no treatment) 12586; for Dynamic Lung Compliance (Area Under Curve): Saline −799, OVA (no treatment) −1386
Experimental: Antigen sensitization and challenge: Male Hartley guinea pigs (225-250 g) were sensitized with ovalbumin (0.5 ml of 1% solution, i.p. and s.c.) on day 1 (Aug. 25, 2008). On day 4 (Aug. 28, 2008), animals received a booster injection (i.p.) of 0.5 ml of 1% ovalbumin. On day 21 (Sep. 16, 2008), animals were orally dosed (2 ml/kg) with either vehicle (0.5% methylcellulose/0.2% Tween 80) or compound(s) 24 hours prior to antigen challenge. Thirty minutes before antigen challenge the animals were also injected with mepyramine (10 mg/kg, i.p.) to prevent anaphylactic collapse. Animals were then exposed for 20 min to an aerosol of 1% ovalbumin using a DeVilbiss Ultraneb nebulizer. Negative control animals were not challenged. Sensitizing solution: One gram (1 g) of albumin from chicken egg white (Sigma A55031G; lot#087K7004) was added to 100 ml of saline and allowed to go into solution.
Airway resistance measurement: Eighteen to twenty four hours after challenge, animals were anesthetized, (0.5 ml dose (i.m.) of cocktail containing ketamine (62 mg/kg), xylazine (30 mg/kg) and Promace (1.5 mg/kg)), surgically prepared and then placed in a whole body plethysmograph. Animals were connected to Ugo-Basile ventilators delivering a tidal volume of 1 ml/100 g at a rate of 50 breaths/minute via a tracheal cannula. The jugular vein is also cannulated for histamine challenge. A-water filled esophageal cannula was placed such that transpulmonary pressure could be recorded. Transpulmonary pressure was measured as the difference between the tracheal and esophageal cannulas using a differential pressure transducer. The volume, airflow, and transpulmonary pressure signals are monitored using a pulmonary analysis system (Buxco XA software) and used to calculate pulmonary resistance (cmH2O/ml/s) and dynamic compliance (ml/cmH20). Airway resistance and dynamic compliance are computed on a breath-by-breath basis. Histamine is administered intravenously and reactivity to increasing concentrations (1-20 μg/kg) assessed.

[2] = Suspension of benzoate salt in water, solid form checked by XRPD and thermal analysis; type: physicochemical; conditions: 50 mg/mL free base equivalent in nanopure water, total 29 hours as suspension, then air dried
Experimental: Sample Preparation: Material was prepared as in the reference example 3 above. A suspension of the benzoate salt was prepared as 50 mg/mL free base equivalent in nanopure water, which was 63.6 mg salt in 1 mL water. Sample was stirred at 500 rpm overnight and allowed to stand for 4 hours before it was centrifuged (total 29 hours as suspension). It was centrifuged at 13000 rpm for 8 minutes and the collected solid was analyzed by XRPD (x-ray power diffraction) as wet sample and evaluated by microscope. The wet solid was then air dried at ambient room temperature overnight to be analyzed as the dry sample by XRPD and thermal analysis. The as is drug substance is compared as the initial material. The XRPD of free base drug substance was also used as the comparison. The benzoate appeared to be a variable hydrate, with the XRPD displaying the same peaks for different amounts of water.
• XRPD Method • Siemens Model D5000 with Cu anticathode • Program: 1.0 Sec. dql • Range: 2° to 40°. […]

[3] = target: T1, recombinant human β tryptase (Homo sapiens, UniProt Q15661); assay: β-Tryptase inhibitory potency, in vitro enzyme assay (IC50 and Ki determination); type: biochemical; conditions: 0.5 mM substrate S2366 (2×Km), room temperature, pH 8.2; Ki=IC50/(1+[Substrate]/Km)
T1 construct: made in house; host or cells: yeast cells
Experimental: Tryptase inhibition activity is confirmed using either isolated human lung tryptase or recombinant human β tryptase expressed in yeast cells. Essentially equivalent results are obtained using isolated native enzyme or the expressed enzyme. The assay procedure employs a 96 well microplate (Costar 3590) using L-pyroglutamyl-L-prolyl-L-arginine-para-nitroanilide (S2366: Quadratech) as substrate (essentially as described by McEuen et. al. Biochem Pharm, 1996, 52, pages 331-340). Assays are performed at room temperature using 0.5 mM substrate (2×Km) in 50 mM Tris (pH 8.2), 100 mM NaCl, 0.05% Tween 20, 50 μg/mL heparin, and the microplate is read on a microplate reader (Beckman Biomek Plate reader) at 405 nm wavelength.
The protocol is essentially the same as above except that the compound is added in duplicates at the following final concentrations: 0.01, 0.03, 0.1, 0.3, 1, 3, 10 μM (All dilutions carried out manually). For every assay, whether single point or IC50 determination, a standard compound is used to derive IC50 for comparison. From the IC50 value, the Ki can be calculated using the following formula: Ki=IC50/(1+[Substrate]/Km).

T1 sequence (Q15661 31-275): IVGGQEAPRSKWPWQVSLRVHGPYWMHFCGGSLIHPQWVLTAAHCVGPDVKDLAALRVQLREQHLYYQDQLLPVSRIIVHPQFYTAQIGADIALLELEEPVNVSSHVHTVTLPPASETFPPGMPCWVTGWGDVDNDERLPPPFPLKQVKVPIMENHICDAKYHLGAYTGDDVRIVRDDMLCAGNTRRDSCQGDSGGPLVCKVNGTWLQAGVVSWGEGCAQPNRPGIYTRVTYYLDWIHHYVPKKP

SMILES: COCCn1cc(C(=O)N2CCC(c3cc(CN)ccc3F)CC2)c2c(OC(F)(F)F)ccc(F)c21.COCCn1cc(C(=O)N2CCC(c3cc(CN)ccc3F)CC2)c2c(OC(F)(F)F)ccc(F)c21.O.O.O=C(O)/C=C/C(=O)O.O=C(O)/C=C/C(=O)O.O=C(O)/C=C/C(=O)O [Fumarate Salt, [4-(5-Aminomethyl-2-fluorophenyl)piperidine-1-yl][7-fluoro-1-(2-methoxyethyl)-4-trifluoromethoxy-1H-indol-3-yl]methanone Sesquifumarate Monohydrate]
- Increase in Airway Resistance (Area Under Curve) ([1]; 0.01 mg/kg oral): 9647 +/− 818
- Dynamic Lung Compliance (Area Under Curve) ([1]; 0.01 mg/kg oral): −1218 +/− 47
- Increase in Airway Resistance (Area Under Curve) ([1]; 0.03 mg/kg oral): 8103 +/− 745
- Dynamic Lung Compliance (Area Under Curve) ([1]; 0.03 mg/kg oral): −1156 +/− 40
- Increase in Airway Resistance (Area Under Curve) ([1]; 0.1 mg/kg oral): 6623 +/− 511
- Dynamic Lung Compliance (Area Under Curve) ([1]; 0.1 mg/kg oral): −1004 +/− 43
- Inhibition of antigen-induced airway hyperreactivity (in words) ([1]; dosed 24 hours prior to allergen challenge, guinea pig, oral): dose-related inhibition of antigen-induced airway hyperreactivity

SMILES: COCCn1cc(C(=O)N2CCC(c3cc(CN)ccc3F)CC2)c2c(OC(F)(F)F)ccc(F)c21.O=C(O)c1ccccc1 [benzoate salt, [4-(5-Aminomethyl-2-fluorophenyl)piperidine-1-yl][7-fluoro-1-(2-methoxyethyl)-4-trifluoromethoxy-1H-indol-3-yl]methanone Benzoate]
- Solid form stability in aqueous suspension (XRPD and thermal analysis) [2]: no free base or conversions to hydrate form were noted

SMILES: COCCn1cc(C(=O)N2CCC(c3cc(CN)ccc3F)CC2)c2c(OC(F)(F)F)ccc(F)c21 [compound of formula I, [4-(5-aminomethyl-2-fluoro-phenyl)-piperidin-1-yl]-[7-fluoro-1-(2-methoxy-ethyl)-4-trifluoromethoxy-1H-indol-3-yl]-methanone]
- Ki [3]: 26 ± 5 nM
